Reference: patent US4062853A, “Chloro-pyridinyloxymethyl esters of thiocyanic acid” (The Dow Chemical Company, priority 1973, dated 1977)
Values after ≈ are worked out from the molar mass of the structure shown.

Experiments:
Format in all cases: cell-based
[1] = system: Trichophyton mentagrophytes; assay: conventional agar dilution test, fungicidal activity, Trichophyton mentagrophytes; settings: complete growth inhibition, read-out: Minimum Inhibitory Concentration
Description: (§1) In representative operations, the products of the invention when tested for fungicidal activity using conventional agar dilution tests gave complete growth inhibition against the following organisms at the indicated concentrations in parts per million: […]

Ceratocystis ips = assay: conventional agar dilution test, fungicidal activity, Ceratocystis ips; settings: complete growth inhibition, read-out: Minimum Inhibitory Concentration
Description: as §1

Candida albicans = assay: conventional agar dilution test, fungicidal activity, Candida albicans; settings: complete growth inhibition, read-out: Minimum Inhibitory Concentration
Description: as §1

Rhizopus nigricans = assay: conventional agar dilution test, fungicidal activity, Rhizopus nigricans; settings: Rhizopus stolonifer, complete growth inhibition, read-out: Minimum Inhibitory Concentration
Description: as §1

Trichoderma sp. 42 = assay: conventional agar dilution test, fungicidal activity, Trichoderma sp. 42; settings: complete growth inhibition, read-out: Minimum Inhibitory Concentration
Description: as §1

Candida pelliculosa = assay: conventional agar dilution test, fungicidal activity, Candida pelliculosa; settings: Hansenula anomala, complete growth inhibition, read-out: Minimum Inhibitory Concentration
Description: as §1

Pullularia pullulans = assay: conventional agar dilution test, fungicidal activity, Pullularia pullulans; settings: complete growth inhibition, read-out: Minimum Inhibitory Concentration
Description: as §1

Aspergillus terreus = assay: conventional agar dilution test, fungicidal activity, Aspergillus terreus; settings: complete growth inhibition, read-out: Minimum Inhibitory Concentration
Description: as §1

In the case of `N#CSCOc1nc(Cl)c(Cl)cc1Cl` [I, [(3,5,6-trichloro-2-pyridinyl)oxy]methyl thiocyanate], the MIC [1] is reported as 1 µg/mL (≈ 3.71 µM), the MIC (Ceratocystis ips) is reported as 1 µg/mL (≈ 3.71 µM) and the MIC (Candida albicans) is reported as 10 µg/mL (≈ 37.1 µM). It also gave an MIC (Rhizopus nigricans) of 10 µg/mL (≈ 37.1 µM), an MIC (Trichoderma sp. 42) of 10 µg/mL (≈ 37.1 µM) and an MIC (Candida pelliculosa) of 10 µg/mL (≈ 37.1 µM). The MIC (Pullularia pullulans) was 10 µg/mL (≈ 37.1 µM) and the MIC (Aspergillus terreus) was 1 µg/mL (≈ 3.71 µM).
In the case of `N#CSCOc1c(Cl)c(Cl)nc(Cl)c1Cl` [II, Thiocyanic acid, [(2,3,5,6-tetrachloro-4-pyridinyl)oxy]-methyl ester], the MIC [1] is reported as 1 µg/mL (≈ 3.29 µM), the MIC (Ceratocystis ips) is reported as 10 µg/mL (≈ 32.9 µM) and the MIC (Candida albicans) is reported as greater than 100 µg/mL. It also gave an MIC (Rhizopus nigricans) greater than 100 µg/mL, an MIC (Trichoderma sp. 42) greater than 100 µg/mL and an MIC (Candida pelliculosa) greater than 100 µg/mL. The MIC (Pullularia pullulans) was 100 µg/mL (≈ 329 µM) and the MIC (Aspergillus terreus) was 10 µg/mL (≈ 32.9 µM).
`N#CSCOc1c(Cl)cnc(Cl)c1Cl` [III, Thiocyanic acid, [(2,3,5-trichloro-4-pyridinyl)oxy]methyl ester] gave an MIC [1] of 1 µg/mL (≈ 3.71 µM), an MIC (Ceratocystis ips) of 10 µg/mL (≈ 37.1 µM) and an MIC (Candida albicans) of 10 µg/mL (≈ 37.1 µM). For the same compound, the MIC (Rhizopus nigricans) was 10 µg/mL (≈ 37.1 µM), the MIC (Trichoderma sp. 42) was 10 µg/mL (≈ 37.1 µM) and the MIC (Candida pelliculosa) was 10 µg/mL (≈ 37.1 µM). For the same compound, the MIC (Pullularia pullulans) was 1 µg/mL (≈ 3.71 µM) and the MIC (Aspergillus terreus) was 1 µg/mL (≈ 3.71 µM).
With `N#CSCOc1nc(Cl)c(Cl)c(OCCl)c1Cl` [IV, Thiocyanic acid, [(3,5,6-trichloro-4-(chloromethoxy)-2-pyridinyl)oxy]methylester] the MIC [1] was 1 µg/mL (≈ 2.99 µM), the MIC (Ceratocystis ips) was 10 µg/mL (≈ 29.9 µM) and the MIC (Candida albicans) was 10 µg/mL (≈ 29.9 µM). It also gave an MIC (Rhizopus nigricans) of 100 µg/mL (≈ 299 µM), an MIC (Trichoderma sp. 42) of 10 µg/mL (≈ 29.9 µM) and an MIC (Candida pelliculosa) of 10 µg/mL (≈ 29.9 µM). It also gave an MIC (Pullularia pullulans) of 10 µg/mL (≈ 29.9 µM) and an MIC (Aspergillus terreus) of 10 µg/mL (≈ 29.9 µM).
Work on `N#CSCOc1nc(F)c(Cl)cc1Cl` [V, Thiocyanic acid, [(3,5-dichloro-6-fluoro-2-pyridinyl)oxy]methyl ester] yielded an MIC [1] of 1 µg/mL (≈ 3.95 µM), an MIC (Ceratocystis ips) of 10 µg/mL (≈ 39.5 µM) and an MIC (Candida albicans) of 10 µg/mL (≈ 39.5 µM). It also gave an MIC (Rhizopus nigricans) of 10 µg/mL (≈ 39.5 µM), an MIC (Trichoderma sp. 42) of 10 µg/mL (≈ 39.5 µM) and an MIC (Candida pelliculosa) of 10 µg/mL (≈ 39.5 µM). The MIC (Pullularia pullulans) was 10 µg/mL (≈ 39.5 µM) and the MIC (Aspergillus terreus) was 1 µg/mL (≈ 3.95 µM).
`N#CSCOc1cc(C(Cl)(Cl)Cl)cc(Cl)n1` [VI, Thiocyanic acid [(6-chloro-4-(trichloromethyl)-2-pyridinyl)-oxy]methyl ester] showed an MIC [1] of 1 µg/mL (≈ 3.14 µM), an MIC (Ceratocystis ips) of 10 µg/mL (≈ 31.4 µM) and an MIC (Candida albicans) of 100 µg/mL (≈ 314 µM). The MIC (Rhizopus nigricans) was 100 µg/mL (≈ 314 µM), the MIC (Trichoderma sp. 42) was 100 µg/mL (≈ 314 µM) and the MIC (Candida pelliculosa) was 100 µg/mL (≈ 314 µM). For the same compound, the MIC (Pullularia pullulans) was 10 µg/mL (≈ 31.4 µM) and the MIC (Aspergillus terreus) was 1 µg/mL (≈ 3.14 µM).
